Reference: PubChem BioAssay AID330 (DTP/NCI, 2004)
“And” between values parts separate entries of the source, which are not always exact repeats. Equal values may be shown once. Toxic doses and inconclusive results are not listed. Peptide text beside a SMILES is read from it. * marks the point of attachment. Cbz = O=C(OCc1ccccc1)*

Tested on: P388 leukemia ip, CD2F1 mice, survival T/C
Experiment: NCI In Vivo Anticancer Drug Screen. Data for tumor model P388 Leukemia (intraperitoneal) in CD2F1 (CDF1) mice
Conditions: endpoint: median survival time, higher = longer survival
Outline: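 Mice carrying the transplanted tumor received test compound or vehicle. Survival was recorded in each group, and the value is the treated-group measurement divided by that of the vehicle-treated control group.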

[1] = dose: 100.0 mg/kg/injection, schedule: Q04DX003 (ip), vehicle: Klucel (hydroxypropylcellulose) (HPC)
[2] = dose: 50.0 mg/kg/injection, schedule: Q01DX009 (ip), vehicle: saline with Tween-80
[3] = dose: 100.0 mg/kg/injection, schedule: Q01DX009 (ip), vehicle: saline with Tween-80
[4] = dose: 200.0 mg/kg/injection, schedule: Q01DX009 (ip), vehicle: saline with Tween-80
[5] = dose: 25.0 mg/kg/injection, schedule: Q01DX009 (ip), vehicle: saline with Tween-80
[6] = dose: 25.0 mg/kg/injection, schedule: Q01DX009 (ip), vehicle: other
[7] = dose: 50.0 mg/kg/injection, schedule: Q01DX009 (ip), vehicle: other
[8] = dose: 100.0 mg/kg/injection, schedule: Q01DX009 (ip), vehicle: other
[9] = dose: 200.0 mg/kg/injection, schedule: Q01DX009 (ip), vehicle: other
[10] = dose: 50.0 mg/kg/injection, schedule: Q01DX005 (ip), vehicle: saline with Tween-80
[11] = dose: 100.0 mg/kg/injection, schedule: Q01DX005 (ip), vehicle: saline with Tween-80
[12] = dose: 200.0 mg/kg/injection, schedule: Q01DX005 (ip), vehicle: saline with Tween-80
[13] = dose: 1.56 mg/kg/injection, schedule: Q01DX009 (ip), vehicle: saline
[14] = dose: 3.12 mg/kg/injection, schedule: Q01DX009 (ip), vehicle: saline
[15] = dose: 6.25 mg/kg/injection, schedule: Q01DX009 (ip), vehicle: saline
[16] = dose: 12.5 mg/kg/injection, schedule: Q01DX009 (ip), vehicle: saline
[17] = dose: 25.0 mg/kg/injection, schedule: Q01DX005 (ip), vehicle: saline with Tween-80
[18] = dose: 25.0 mg/kg/injection, schedule: Q01DX005 (ip), vehicle: saline
[19] = dose: 50.0 mg/kg/injection, schedule: Q01DX005 (ip), vehicle: saline
[20] = dose: 100.0 mg/kg/injection, schedule: Q01DX005 (ip), vehicle: saline
[21] = dose: 50.0 mg/kg/injection, schedule: Q01DX005 (ip), vehicle: Klucel (hydroxypropylcellulose) (HPC)
[22] = dose: 100.0 mg/kg/injection, schedule: Q01DX005 (ip), vehicle: Klucel (hydroxypropylcellulose) (HPC)
[23] = dose: 200.0 mg/kg/injection, schedule: Q01DX005 (ip), vehicle: Klucel (hydroxypropylcellulose) (HPC)

C[N+]1(C)N=C([O-])N(c2ccccc2F)C1=O
T/C [1]: 99 % of control | T/C (dose: 200.0 mg/kg/injection, schedule: Q04DX003 (ip), vehicle: Klucel (hydroxypropylcellulose) (HPC)): 91 % of control

Cc1ccc(NNC2=NC(=S)NC(=O)C2)cc1
T/C [2]: 111 % of control | T/C [3]: 95 % of control | T/C [4]: 104 % of control

CN1C(=O)N(C)C(O)(/C=C/c2c(Cl)cccc2Cl)N(C)C1=O
T/C [5]: 106 % of control and 92 % of control | T/C [2]: 94 % of control and 96 % of control | T/C [3]: 93 % of control and 96 % of control | T/C [4]: 89 % of control and 91 % of control

ClCCc1ccn[nH]1
T/C (dose: 100.0 mg/kg/injection, schedule: Q04DX002 (ip), vehicle: saline): 97 % of control | T/C (dose: 200.0 mg/kg/injection, schedule: Q04DX002 (ip), vehicle: saline): 99 % of control

COc1ccc(C(=O)/C(C)=C(/C)NCCC#N)c(OCc2ccccc2)c1OC
T/C [6]: 95 % of control | T/C [7]: 91 % of control | T/C [8]: 95 % of control | T/C [9]: 100 % of control | T/C (dose: 400.0 mg/kg/injection, schedule: Q01DX009 (ip), vehicle: other): 95 % of control

CN1C(=O)/C(=C2\Sc3ccccc3NC2=O)SC1=S
T/C (dose: 50.0 mg/kg/injection, schedule: Q04DX003 (ip), vehicle: saline with Tween-80): 92 % of control | T/C (dose: 100.0 mg/kg/injection, schedule: Q04DX003 (ip), vehicle: saline with Tween-80): 95 % of control | T/C (dose: 200.0 mg/kg/injection, schedule: Q04DX003 (ip), vehicle: saline with Tween-80): 102 % of control

COC(=O)C1=C(C(=O)OC)C(c2ccccc2)N(C)O1 (stereo not drawn)
T/C [10]: 103 % of control | T/C [11]: 98 % of control | T/C [12]: 106 % of control

CC(C)=CCC(OC(=O)C=C(C)C)c1cc(O)c2c(O)ccc(O)c2c1O.[Fe] (stereo not drawn)
T/C (dose: 100.0 mg/kg/injection, schedule: Q04DX002 (ip), vehicle: saline with Tween-80): 92 % of control | T/C (dose: 200.0 mg/kg/injection, schedule: Q04DX002 (ip), vehicle: saline with Tween-80): 92 % of control | T/C (dose: 400.0 mg/kg/injection, schedule: Q04DX002 (ip), vehicle: saline with Tween-80): 93 % of control

COc1cc2cc(c1Cl)N(C)C(=O)CC(OC(=O)CC(C)C)C1(C)OC1C(C)C1CC(O)(NC(=O)O1)C(OC)/C=C/C=C(C)C2 (stereo not drawn)
T/C (dose: 6.2 micrograms/kg/injection, schedule: Q01DX009 (ip), vehicle: saline + alcohol): 113 % of control | T/C (dose: 6.25 micrograms/kg/injection, schedule: Q01DX009 (ip), vehicle: saline + alcohol): 111 % of control and 120 % of control | T/C (dose: 100.0 micrograms/kg/injection, schedule: Q01DX009 (ip), vehicle: saline + alcohol): 106 % of control

S=P(C1CCCCC1)(C1CCCCC1)C(c1cccnc1)N1CCCC1 (stereo not drawn)
T/C (dose: 50.0 mg/kg/injection, schedule: Q01DX009 (ip), vehicle: saline): 104 % of control | T/C (dose: 100.0 mg/kg/injection, schedule: Q01DX009 (ip), vehicle: saline): 94 % of control | T/C (dose: 200.0 mg/kg/injection, schedule: Q01DX009 (ip), vehicle: saline): 87 % of control

CNCCCCc1cc(-c2ccc([N+](=O)[O-])cc2)n[nH]1
T/C [1]: 105 % of control

COC(=S)NC(=O)c1ccc(F)cc1
T/C [2]: 103 % of control | T/C [3]: 112 % of control | T/C [4]: 117 % of control | T/C (dose: 400.0 mg/kg/injection, schedule: Q01DX009 (ip), vehicle: saline with Tween-80): 110 % of control

O=C1OCC2OC(=O)c3cc(O)c(O)c(O)c3-c3c(O)c(O)c(O)c4c3C(=O)OC(C2OC(=O)c2cc(O)c(O)c(O)c2-c2c1cc(O)c(O)c2O)C1OC(=O)c2c-4c(O)c(O)c(O)c2C1O (stereo not drawn)
T/C [13]: 101 % of control | T/C [14]: 100 % of control | T/C [15]: 99 % of control and 88 % of control and 100 % of control | T/C [16]: 100 % of control

CC(=O)/C(=C\c1ccccc1)C(=O)CCN(C)C
T/C [17]: 100 % of control | T/C [10]: 103 % of control

Nc1nc(N)c2nc(SCc3ccc(Cl)cc3)c(N)nc2n1
T/C (dose: 15.0 mg/kg/injection, schedule: Q01DX005 (ip), vehicle: Klucel (hydroxypropylcellulose) (HPC)): 88 % of control | T/C (dose: 30.0 mg/kg/injection, schedule: Q01DX005 (ip), vehicle: Klucel (hydroxypropylcellulose) (HPC)): 88 % of control | T/C (dose: 60.0 mg/kg/injection, schedule: Q01DX005 (ip), vehicle: Klucel (hydroxypropylcellulose) (HPC)): 103 % of control | T/C (dose: 120.0 mg/kg/injection, schedule: Q01DX005 (ip), vehicle: Klucel (hydroxypropylcellulose) (HPC)): 88 % of control | T/C (dose: 240.0 mg/kg/injection, schedule: Q01DX005 (ip), vehicle: Klucel (hydroxypropylcellulose) (HPC)): 94 % of control

CC(C)(C)OC(=O)NNCC(=O)OCc1ccccc1
T/C (dose: 12.5 mg/kg/injection, schedule: Q01DX009 (ip), vehicle: other): 96 % of control | T/C [6]: 103 % of control | T/C [7]: 111 % of control | T/C [8]: 101 % of control | T/C [9]: 99 % of control

N#C[C@H]1O[C@H]1c1ccc[n+]([O-])c1
T/C (dose: 12.5 mg/kg/injection, schedule: Q01DX005 (ip), vehicle: saline): 107 % of control | T/C [18]: 102 % of control | T/C [19]: 103 % of control and 115 % of control

CC(=O)C1CCN(CN2CCC(C(C)=O)CC2)CC1
T/C [18]: 101 % of control | T/C [19]: 110 % of control | T/C [20]: 97 % of control

CCCCn1c(O)c(/C=C2/C=Nc3ccccc32)sc1=O
T/C [2]: 95 % of control | T/C [3]: 95 % of control | T/C [4]: 97 % of control

O=[N+]([O-])c1cccn2nc(COCCO)nc12
T/C (dose: 12.5 mg/kg/injection, schedule: Q01DX005 (ip), vehicle: saline with Tween-80): 97 % of control | T/C [17]: 94 % of control | T/C [10]: 97 % of control | T/C [20]: 113 % of control | T/C (dose: 200.0 mg/kg/injection, schedule: Q01DX005 (ip), vehicle: saline): 109 % of control

S=P(N1CC1)(N1CC1)N1CC1.[Cl-].[Cl-].[NH2-].[NH2-].[Pt+4]
T/C (dose: 0.78 mg/kg/injection, schedule: Q01DX009 (ip), vehicle: saline): 104 % of control | T/C [13]: 113 % of control and 101 % of control | T/C [15]: 178 % of control and 150 % of control and 166 % of control | T/C (dose: 25.0 mg/kg/injection, schedule: Q01DX009 (ip), vehicle: saline): 88 % of control

CCn1c2[n+](c3ccccc31)CCC2
T/C [14]: 114 % of control | T/C [15]: 113 % of control | T/C [16]: 114 % of control

O=C(NCCNC(=O)c1cccnc1)c1cccnc1
T/C [10]: 118 % of control | T/C [11]: 108 % of control | T/C [12]: 111 % of control

COC1=CC(=O)/C(=C(O)/C=C/c2ccccc2)C(=O)C1(C)C
T/C (dose: 60.0 mg/kg/injection, schedule: Q01DX005 (ip), vehicle: saline with Tween-80): 108 % of control | T/C (dose: 120.0 mg/kg/injection, schedule: Q01DX005 (ip), vehicle: saline with Tween-80): 115 % of control | T/C (dose: 240.0 mg/kg/injection, schedule: Q01DX005 (ip), vehicle: saline with Tween-80): 123 % of control

CN1CN(c2ccc([N+](=O)[O-])cc2)N=N1
T/C [21]: 95 % of control | T/C [22]: 97 % of control | T/C [23]: 94 % of control

COC(=O)C(CO)NC(=O)C(CO)NC(=O)OCc1ccccc1 (stereo not drawn) (Cbz-Ser-Ser-OMe; configuration not given here)
T/C [21]: 100 % of control | T/C [22]: 98 % of control | T/C [23]: 101 % of control

O=[N+]([O-])c1ccc(Cl)c(S(=O)(=O)Cl)c1
T/C [10]: 97 % of control | T/C [11]: 88 % of control | T/C [12]: 92 % of control

CC1CCCC(C2CC3CCCCC3C(N)[N-]2)[N-]1.CC1CCCC(C2CC3CCCCC3C(N)[N-]2)[N-]1.O=[N+]([O-])O.[Cu+2] (stereo not drawn)
T/C (dose: 100.0 mg/kg/injection, schedule: Q04DX002 (ip), vehicle: suspension in saline): 105 % of control | T/C (dose: 200.0 mg/kg/injection, schedule: Q04DX002 (ip), vehicle: suspension in saline): 112 % of control

CCCCN(CCCC)CC(O)c1c(Br)c2ccccc2c2ccccc12 (stereo not drawn)
T/C (dose: 12.5 mg/kg/injection, schedule: Q01DX009 (ip), vehicle: saline with Tween-80): 107 % of control | T/C [5]: 109 % of control | T/C [2]: 124 % of control
